Laboratory results: US12180192B2, “Modulators of THR-β and methods of use thereof” (ALIGOS THERAPEUTICS, INC., priority 2019, dated 2024)
Read-outs that look alike come from different tables or passages of the source.

Tests used:
[1] = target: T1, human thyroid receptor beta ligand-binding domain (LBD) (Homo sapiens, UniProt P10828); experiment: TR-FRET thyroid receptor beta coactivator assay (THR biochemical assay, Assay 1); conditions: for EC50: THR-beta, TR-FRET coactivator assay, read-out: Activity category Assay 1 (EC50, THR-beta agonist); for Emax: read-out: Activity category Assay 1 THRβ (Emax)
T1 construct: purchased Invitrogen
T1 sequence (P10828 217-461 limits assumed): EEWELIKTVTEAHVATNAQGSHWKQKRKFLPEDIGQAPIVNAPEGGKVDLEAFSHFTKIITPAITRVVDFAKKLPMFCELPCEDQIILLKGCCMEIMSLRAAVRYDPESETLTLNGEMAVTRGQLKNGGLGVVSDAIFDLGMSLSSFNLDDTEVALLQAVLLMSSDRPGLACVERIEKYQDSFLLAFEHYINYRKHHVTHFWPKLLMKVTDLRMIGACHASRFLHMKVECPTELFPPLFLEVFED
Source text: (§1) The TR-FRET thyroid receptor beta coactivator assay was used with slight, optimized modifications of the manufacturer's protocol (Invitrogen). The assay uses a terbium-labeled anti-GST antibody, a glutathione-S-transferase (GST) tagged human thyroid receptor, beta or alpha, ligand-binding domain (LBD), and a fluorescein labeled SRC2-2 coactivator peptide. […] The energy transfer is detected as an increase in the fluorescence emission of the fluorescein acceptor, and a decrease in the fluorescence emission of the terbium donor. The assay is performed in a 384-well black plate in a final volume of 20 μL. Serial dilution of various test agonists was performed in DMSO (1% final DMSO concentration) and added to the test plate. Thyroid receptor beta LBD is added to the plate at a final concentration of 1 nM, followed by the mixture of the fluorescein labeled SRC2-2 coactivator peptide, and the terbium-labeled anti-GST antibody at final concentrations of 200 nM and 2 nM respectively. The assay is incubated for 1 hr at rt protected from light.

[2] = target: T2, human thyroid receptor alpha ligand-binding domain (LBD) (Homo sapiens, UniProt P10827); experiment: TR-FRET thyroid receptor alpha coactivator assay (THR biochemical assay, Assay 1); conditions: for EC50: Table 4, THR-alpha, read-out: Activity category Assay 1 (EC50, THR-alpha agonist activity); for Emax: read-out: Activity category Assay 1 THRα (Emax)
T2 construct: purchased Invitrogen
Source text: as §1

T2 sequence (P10827 163-410 isoform P10827-2 limits assumed, other chains not shown): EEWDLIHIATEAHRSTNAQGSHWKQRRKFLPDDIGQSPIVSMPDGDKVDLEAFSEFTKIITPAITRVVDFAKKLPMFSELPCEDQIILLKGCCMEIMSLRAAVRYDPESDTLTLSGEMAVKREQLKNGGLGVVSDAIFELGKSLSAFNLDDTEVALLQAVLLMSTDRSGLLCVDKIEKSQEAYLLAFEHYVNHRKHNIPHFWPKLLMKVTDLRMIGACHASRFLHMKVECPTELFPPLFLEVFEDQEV

Compound | EC50 [1] | Emax ([1]; Table 5, Assay 1, THRβ) | EC50 [2] | Emax ([2]; Table 5, THRα) | Activity category Assay 1 THRβ (Emax) ([1]; Table 5, Assay 1, THRβ) | Activity category Assay 1 THRα (Emax) ([2]; Table 5, THRα) | Emax [1]
N#C[C@@H]1CC[C@H]1c1cc(Oc2c(Cl)cc(-n3nc(N)c(=O)[nH]c3=O)cc2Cl)n[nH]c1=O (relative stereo) [Compound 105] | 1 to 25 µM | < 50% | 1 to 25 µM | < 50% |  |  | 
CC(c1ccccc1)c1cc(Oc2c(Cl)cc(-n3nc(N)c(=O)[nH]c3=O)cc2Cl)n[nH]c1=O (single isomer, unassigned) [Compound 163, 6-Amino-2-(3,5-dichloro-4-((6-oxo-5-(1-phenylethyl)-1,6-dihydropyridazin-3-yl)oxy)phenyl)-1,2,4-triazine-3,5(2H,4H)-dione] | > 25 µM | < 50% | > 25 µM | < 50% |  |  | 
Nc1nn(-c2cc(Cl)c(Oc3cc(C4Cc5ccccc54)c(=O)[nH]n3)c(Cl)c2)c(=O)[nH]c1=O (single isomer, unassigned) [Compound 165, 6-amino-2-(4-((5-(bicyclo[4.2.0]octa-1(6),2,4-trien-7-yl)-6-oxo-1,6-dihydropyridazin-3-yl)oxy)-3,5-dichlorophenyl)-1,2,4-triazine-3,5(2H,4H)-dione] | < 0.05 µM | < 50% | 0.25 to 1 µM | < 50% |  |  | 
Nc1nn(-c2cc(Cl)c(Oc3cc(C4Cc5ccccc54)c(=O)[nH]n3)c(Cl)c2)c(=O)[nH]c1=O (single isomer, unassigned) [Compound 166, 6-amino-2-(4-((5-(bicyclo[4.2.0]octa-1(6),2,4-trien-7-yl)-6-oxo-1,6-dihydropyridazin-3-yl)oxy)-3,5-dichlorophenyl)-1,2,4-triazine-3,5(2H,4H)-dione] | 0.05 to 0.25 µM |  | > 25 µM |  | C (Emax<50%) | C (Emax<50%) | 
CC(c1ccccc1)c1c[nH]c2ccc(Oc3c(Cl)cc(-n4nc(C#N)c(=O)[nH]c4=O)cc3Cl)cc12 (stereo not shown) [Compound 6, 2-(3,5-dichloro-4-[[3-(1-phenylethyl)-1H-indol-5-yl]oxy]phenyl)-3,5-dioxo-4H-1,2,4-triazine-6-carbonitrile] | > 25 µM | < 50% | > 25 µM | < 50% |  |  | 
N#Cc1nn(-c2cc(Cl)c(Oc3ccc4[nH]cc(-c5ccccc5)c4c3)c(Cl)c2)c(=O)[nH]c1=O [Compound 7, 2-[3,5-dichloro-4-[(3-phenyl-1H-indol-5-yl)oxy]phenyl]-3,5-dioxo-4H-1,2,4-triazine-6-carbonitrile] | > 25 µM |  | > 25 µM | < 50% |  |  | < 50%
N#Cc1nn(-c2cc(Cl)c(Oc3ccc4[nH]cc(C(=O)N5CCc6ccccc6C5)c4c3)c(Cl)c2)c(=O)[nH]c1=O [Compound 22] | > 25 µM | < 50% | > 25 µM | < 50% |  |  | 
CCn1nc(-c2cc(Cl)c(Oc3cc(C(C)C)c(=O)[nH]n3)c(Cl)c2)c(=O)[nH]c1=O [Compound 23] | 1 to 25 µM | < 50% | 1 to 25 µM | < 50% |  |  | 
CSCc1nn(-c2cc(Cl)c(Oc3cc(C(C)C)c(=O)[nH]n3)c(Cl)c2)c(=O)[nH]c1=O [Compound 33, 2-[3,5-dichloro-4-[(5-isopropyl-6-oxo-1H-pyridazin-3-yl)oxy]phenyl]-6-[(methylsulfanyl)-methyl]-4H-1,2,4-triazine-3,5-dione] | 0.25 to 1 µM | > 75% | 0.25 to 1 µM | < 50% |  |  | 
CC(C)c1cc(Oc2c(Cl)cc(-n3nc(CS(C)(=O)=O)c(=O)[nH]c3=O)cc2Cl)n[nH]c1=O [Compound 34, 2-[3,5-dichloro-4-[(5-isopropyl-6-oxo-1H-pyridazin-3-yl)oxy]-phenyl]-6-(methanesulfonylmethyl)-4H-1,2,4-triazine-3,5-dione] | 1 to 25 µM | < 50% | > 25 µM | < 50% |  |  | 
Nc1nn(-c2cc(Cl)c(Oc3n[nH]c(=O)cc3-c3cccc(Cl)c3)c(Cl)c2)c(=O)[nH]c1=O [Compound 68-A, 6-amino-2-(3,5-dichloro-4-((4-(3-chlorophenyl)-6-oxo-1,6-dihydropyridazin-3-yl)oxy)phenyl)-1,2,4-triazine-3,5(2H,4H)-dione] | > 25 µM | < 50% | > 25 µM | < 50% |  |  | 
Nc1nn(-c2cc(Cl)c(Oc3n[nH]c(=O)cc3-c3cccc(F)c3)c(Cl)c2)c(=O)[nH]c1=O [Compound 69-A, 6-amino-2-(3,5-dichloro-4-((4-(3-fluorophenyl)-6-oxo-1,6-dihydropyridazin-3-yl)oxy)phenyl)-1,2,4-triazine-3,5(2H,4H)-dione] | > 25 µM | < 50% | > 25 µM | < 50% |  |  | 
Cc1cccc(-c2cc(=O)[nH]nc2Oc2c(Cl)cc(-n3nc(N)c(=O)[nH]c3=O)cc2Cl)c1 [Compound 70-A, 6-amino-2-(3,5-dichloro-4-((6-oxo-4-(m-tolyl)-1,6-dihydropyridazin-3-yl)oxy)phenyl)-1,2,4-triazine-3,5(2H,4H)-dione] | > 25 µM | < 50% | > 25 µM | < 50% |  |  | 
CCc1cccc(-c2cc(=O)[nH]nc2Oc2c(Cl)cc(-n3nc(N)c(=O)[nH]c3=O)cc2Cl)c1 [Compound 71-A, 6-Amino-2-(3,5-dichloro-4-((4-(3-ethylphenyl)-6-oxo-1,6-dihydropyridazin-3-yl)oxy)phenyl)-1,2,4-triazine-3,5(2H,4H)-dione] | > 25 µM | < 50% | > 25 µM | < 50% |  |  | 
CC(C)c1cc(Oc2c(Cl)cc(-n3nc(C#N)c(=O)[nH]c3=O)c3c2CC3)n[nH]c1=O [Compound 78, 2-[4-Chloro-5-[(5-isopropyl-6-oxo-1H-pyridazin-3-yl)oxy]bicyclo[4.2.0]octa-1(6),2,4-trien-2-yl]-3,5-dioxo-4H-1,2,4-triazine-6-carbonitrile] | 0.25 to 1 µM | < 50% | 1 to 25 µM | < 50% |  |  | 
Nc1nn(-c2cc(Cl)c(Oc3cc(-c4ccc5nnccc5c4)c(=O)[nH]n3)c(Cl)c2)c(=O)[nH]c1=O [Compound 108] | > 25 µM | < 50% | > 25 µM | < 50% |  |  | 
Nc1nn(-c2cc(Cl)c(Oc3n[nH]c(=O)cc3-c3ccc4nnccc4c3)c(Cl)c2)c(=O)[nH]c1=O [Compound 109] | > 25 µM | < 50% | > 25 µM | < 50% |  |  | 
Nc1nn(-c2cc(Cl)c(Oc3cc(-c4ccc5ccnnc5c4)c(=O)[nH]n3)c(Cl)c2)c(=O)[nH]c1=O [Compound 110] | > 25 µM | < 50% | > 25 µM | < 50% |  |  | 
Nc1nn(-c2cc(Cl)c(Oc3n[nH]c(=O)cc3-c3ccc4ccnnc4c3)c(Cl)c2)c(=O)[nH]c1=O [Compound 111] | > 25 µM | < 50% | > 25 µM | < 50% |  |  | 
Nc1nn(-c2cc(Cl)c(Oc3cc(-c4ccc5ccnn5c4)c(=O)[nH]n3)c(Cl)c2)c(=O)[nH]c1=O [Compound 122] | 1 to 25 µM | < 50% | 1 to 25 µM | < 50% |  |  | 
Nc1nn(-c2cc(Cl)c(Oc3n[nH]c(=O)cc3-c3ccc4ccnn4c3)c(Cl)c2)c(=O)[nH]c1=O [Compound 123] | > 25 µM | < 50% | > 25 µM | < 50% |  |  | 
Nc1nn(-c2cc(Cl)c(Oc3n[nH]c(=O)cc3-c3ccn4nccc4c3)c(Cl)c2)c(=O)[nH]c1=O [Compound 125] | 1 to 25 µM | < 50% | > 25 µM | < 50% |  |  | 
Nc1nn(-c2cc(Cl)c(Oc3cc(-c4ccn5cncc5c4)c(=O)[nH]n3)c(Cl)c2)c(=O)[nH]c1=O [Compound 126] | > 25 µM | < 50% | > 25 µM | < 50% |  |  | 
Nc1nn(-c2cc(Cl)c(Oc3n[nH]c(=O)cc3-c3ccn4cncc4c3)c(Cl)c2)c(=O)[nH]c1=O [Compound 127] | > 25 µM | < 50% | > 25 µM | < 50% |  |  | 
Nc1nn(-c2cc(Cl)c(Oc3cc(-c4cc5ccccn5n4)c(=O)[nH]n3)c(Cl)c2)c(=O)[nH]c1=O [Compound 130] | > 25 µM | < 50% | 1 to 25 µM | < 50% |  |  | 
Nc1nn(-c2cc(Cl)c(Oc3n[nH]c(=O)cc3-c3cc4ccccn4n3)c(Cl)c2)c(=O)[nH]c1=O [Compound 131] | 1 to 25 µM | < 50% | 1 to 25 µM | < 50% |  |  | 
Nc1nn(-c2cc(Cl)c(Oc3cc(-c4cnc5ccccc5c4)c(=O)[nH]n3)c(Cl)c2)c(=O)[nH]c1=O [Compound 132] | > 25 µM | < 50% | > 25 µM | < 50% |  |  | 
Nc1nn(-c2cc(Cl)c(Oc3n[nH]c(=O)cc3-c3cnc4ccccc4c3)c(Cl)c2)c(=O)[nH]c1=O [Compound 133] | 0.25 to 1 µM | < 50% | > 25 µM | < 50% |  |  | 
